In patent publication US20090017139A1, “Iodine therapy dosing for treating medical conditions” (priority 2007, published 2009):

How the values were obtained:
[1] = test system: iodine naive women; assay: Example 3: I2 safety study, treatment emergent thyroid status in iodine naive women; type: in vivo, human; conditions: for Hyperthyroidism Overt ↓TSH ↑T4 / Hyperthyroidism Sub-clinical ↓TSH / Hypothyroidism Overt ↑TSH (5-10) ↓T4 / Hypothyroidism Overt ↑TSH (10-20) ↓T4 / Hypothyroidism Overt ↑TSH (>20) ↓T4 / Hypothyroidism Sub-clinical ↑TSH (5-10) / Hypothyroidism Sub-clinical ↑TSH (10-20) / Hypothyroidism Sub-clinical ↑TSH (>20): iodine naive, patients (percent of dose group)
Protocol: A second I2 safety study was conducted in women not previously exposed to iodine therapy (iodine naïve). […] Thyroid functions laboratory values were available for 365 patients. The age of the female participants ranged from 20 to 55; the average age was 42.4 years. Variations in treatment emergent thyroid status were evaluated based on TSH and T4 values (see Table 2). […] Patients were categorized sub-clinical hypothyroid if TSH was elevated and T4 values were normal; patients with depressed T4 values were considered overtly hypothyroid.
Sub-clinical hyperthyroidism is not correlated to an increased rate of either overt hyperthyroidism or overt hypothyroidism. On the other hand, it is well established that sub-clinical hypothyroidism is a risk factor for overt hypothyroidism. In fact, as stated in Example 2, antibodies to thyroid peroxidase combined with sub-clinical hypothyroidism are established risk factors for overt thyroid disease in women between the age of 30 and 50. Therefore the key question is whether or not dose is related to the frequency of sub-clinical hypothyroidism. Kendall's rank correlation was used to evaluate the relationship between dose and frequency of sub-clinical hypothyroidism.

[2] = test system: patient with follicular cyst of the ovary; assay: Example 4: I2 therapy of a patient with ovarian follicular cysts; type: in vivo, human
Protocol: The post surgical diagnosis was ruptured follicular cyst of the right ovary. After the surgical procedure the patient continued to experience lower right quadrant abdominal pain. […] The patient was started on I2 therapy at a dose of 6.0 mg/d. The patient was seen again 3 months later (December 3 to March 16). After three months of I2 therapy the patient was free of pain which their […] regarded as unique.
The patient subsequently stopped I2 therapy and approximately 3 years later symptoms of abdominal and breast pain were present. The patient was started again on daily I2 therapy at a dose of 6.0 mg/d. An ultrasound was performed and small follicular cysts in each ovary was noted. […] The patient was continued on daily iodine therapy at a concentration of 3.0 mg/d.

[3] = Example 5: daily feed consumption and weight during 2 months of daily dosing; type: in vivo, Sprague-Dawley rats; conditions: 2 months daily dosing, .06 to 2 mg I2/kg/day
Description: A total of 24 nulliparous and nonpregnant female Sprague-Dawley rats were received from Charles River Laboratories, Kingston, N.Y. The animals were 10 weeks of age and were examined for signs of disease or injury upon receipt. The animals were housed in stainless steel cages and fed LabDiet™ Certified Rodent Chow 5002 (PMI Feeds, Inc., a subsidiary of Purina Mills, Inc.) ad libitum and were provided fresh filtered tap water ad libitum. Environmental controls were set to maintain a temperature of 18 to 26° C. and a relative humidity of 30 to 70%. A 12-hour light/dark cycle was employed and the room underwent a minimum of ten fresh air changes/hour.
The animals were allowed to acclimate to laboratory conditions for 2 weeks. No abnormal findings excluding animals from study were noted. The animals were released from conditioning following an examination. Each animal was identified with a unique number that was indicated by ear punch. Cage labels, color-coded by group, identified each cage. The animals were maintained at laboratory conditions for an additional 2 weeks and then randomized into treatment groups by weight.
Tablets of IoGen, a registered trademark of Symbollon Pharmaceuticals Inc. of Framingham Mass. USA were dissolved in distilled water. […]

[4] = in drinking water, 100 days; cited from earlier work

With `II` [I2, molecular iodine] as the compound, how does the “Hyperthyroidism Overt ↓TSH ↑T4” value ([1]; I2 2.0 mg/d) read?
The value was 0 (0.0).

What about the “Hyperthyroidism Sub-clinical ↓TSH” value ([1]; I2 2.0 mg/d) of the same compound?
The value was 2 (3.4).

What about the “Hypothyroidism Overt ↑TSH (5-10) ↓T4” value ([1]; I2 2.0 mg/d) of the same compound?
The value was 1 (1.7).

What about the “Hypothyroidism Overt ↑TSH (10-20) ↓T4” value ([1]; I2 2.0 mg/d) of the same compound?
The value was 0 (0.0).

What about the “Hypothyroidism Overt ↑TSH (>20) ↓T4” value ([1]; I2 2.0 mg/d) of the same compound?
Its value is 0 (0.0).

What about the “Hypothyroidism Sub-clinical ↑TSH (5-10)” value ([1]; I2 2.0 mg/d) of the same compound?
Its value is 3 (5.2).

What about the “Hypothyroidism Sub-clinical ↑TSH (10-20)” value ([1]; I2 2.0 mg/d) of the same compound?
Its value is 2 (3.4).

And the “Hypothyroidism Sub-clinical ↑TSH (>20)” value ([1]; I2 2.0 mg/d)?
Its value is 0 (0.0).

And the “Hyperthyroidism Overt ↓TSH ↑T4” value ([1]; I2 3.0 mg/d)?
Its value is 2 (3.2).

And the “Hyperthyroidism Sub-clinical ↓TSH” value ([1]; I2 3.0 mg/d)?
The value was 0 (0.0).

And the “Hypothyroidism Overt ↑TSH (5-10) ↓T4” value ([1]; I2 3.0 mg/d)?
Its value is 0 (0.0).

And the “Hypothyroidism Overt ↑TSH (10-20) ↓T4” value ([1]; I2 3.0 mg/d)?
Its value is 0 (0.0).

And the “Hypothyroidism Overt ↑TSH (>20) ↓T4” value ([1]; I2 3.0 mg/d)?
Its value is 0 (0.0).

What about the “Hypothyroidism Sub-clinical ↑TSH (5-10)” value ([1]; I2 3.0 mg/d) of the same compound?
The value was 5 (8.1).

What about the “Hypothyroidism Sub-clinical ↑TSH (10-20)” value ([1]; I2 3.0 mg/d) of the same compound?
The value was 0 (0.0).

And the “Hypothyroidism Sub-clinical ↑TSH (>20)” value ([1]; I2 3.0 mg/d)?
Its value is 0 (0.0).

And the “Hyperthyroidism Overt ↓TSH ↑T4” value ([1]; I2 6.0 mg/d)?
The value was 0 (0.0).

What about the “Hyperthyroidism Sub-clinical ↓TSH” value ([1]; I2 6.0 mg/d) of the same compound?
The value was 2 (3.3).

And the “Hypothyroidism Overt ↑TSH (5-10) ↓T4” value ([1]; I2 6.0 mg/d)?
Its value is 0 (0.0).

What about the “Hypothyroidism Overt ↑TSH (10-20) ↓T4” value ([1]; I2 6.0 mg/d) of the same compound?
The value was 0 (0.0).

And the “Hypothyroidism Overt ↑TSH (>20) ↓T4” value ([1]; I2 6.0 mg/d)?
The value was 1 (1.7).

What about the “Hypothyroidism Sub-clinical ↑TSH (5-10)” value ([1]; I2 6.0 mg/d) of the same compound?
The value was 6 (10).

What about the “Hypothyroidism Sub-clinical ↑TSH (10-20)” value ([1]; I2 6.0 mg/d) of the same compound?
The value was 0 (0.0).

What about the “Hypothyroidism Sub-clinical ↑TSH (>20)” value ([1]; I2 6.0 mg/d) of the same compound?
Its value is 0 (0.0).

What about the “Hyperthyroidism Overt ↓TSH ↑T4” value ([1]; I2 9.0 mg/d) of the same compound?
The value was 2 (3.5).

What about the “Hyperthyroidism Sub-clinical ↓TSH” value ([1]; I2 9.0 mg/d) of the same compound?
Its value is 2 (3.5).

And the “Hypothyroidism Overt ↑TSH (5-10) ↓T4” value ([1]; I2 9.0 mg/d)?
The value was 2 (3.5).

And the “Hypothyroidism Overt ↑TSH (10-20) ↓T4” value ([1]; I2 9.0 mg/d)?
Its value is 0 (0.0).

What about the “Hypothyroidism Overt ↑TSH (>20) ↓T4” value ([1]; I2 9.0 mg/d) of the same compound?
The value was 1 (1.8).

And the “Hypothyroidism Sub-clinical ↑TSH (5-10)” value ([1]; I2 9.0 mg/d)?
The value was 8 (14).

What about the “Hypothyroidism Sub-clinical ↑TSH (10-20)” value ([1]; I2 9.0 mg/d) of the same compound?
Its value is 0 (0.0).

And the “Hypothyroidism Sub-clinical ↑TSH (>20)” value ([1]; I2 9.0 mg/d)?
The value was 0 (0.0).

What about the “Hyperthyroidism Overt ↓TSH ↑T4” value ([1]; I2 .03 mg/d) of the same compound?
The value was 0 (0.0).

And the “Hyperthyroidism Sub-clinical ↓TSH” value ([1]; I2 .03 mg/d)?
Its value is 1 (1.5).

What about the “Hypothyroidism Overt ↑TSH (5-10) ↓T4” value ([1]; I2 .03 mg/d) of the same compound?
Its value is 0 (0.0).

And the “Hypothyroidism Overt ↑TSH (10-20) ↓T4” value ([1]; I2 .03 mg/d)?
Its value is 0 (0.0).

And the “Hypothyroidism Overt ↑TSH (>20) ↓T4” value ([1]; I2 .03 mg/d)?
The value was 0 (0.0).

What about the “Hypothyroidism Sub-clinical ↑TSH (5-10)” value ([1]; I2 .03 mg/d) of the same compound?
The value was 3 (4.6).

And the “Hypothyroidism Sub-clinical ↑TSH (10-20)” value ([1]; I2 .03 mg/d)?
The value was 0 (0.0).

And the “Hypothyroidism Sub-clinical ↑TSH (>20)” value ([1]; I2 .03 mg/d)?
Its value is 0 (0.0).

What about the “relationship between daily dose and frequency of sub-clinical hypothyroidism” value ([1]; Kendall's rank correlation p 0.0167, Cuzik's trend test p less than 0.01) of the same compound?
The value was “correlated to the frequency of sub-clinical hypothyroidism”.

What about the “Overt hypothyroidism, patients (second statement, compared to prevalence of overt hyperthyroidism)” value ([1]; iodine naive patients) of the same compound?
The value was 1.6%.

And the “incidence of abnormal thyroid function, placebo versus treatment groups” value ([1]; iodine naive patients, Fisher's exact test)?
The value was “did not differ”.

What about the “Overt hypothyroidism, patients” value ([1]; iodine naive patients, first statement) of the same compound?
Its value is 1.3%.

And the “symptoms on continued therapy” value ([2]; 3.0 mg/d, seen 9 and 18 months later)?
Its value is “remained asymptomatic”.

What about the abdominal pain ([2]; 6.0 mg/d, after three months of therapy) of the same compound?
The abdominal pain was “free of pain”.

What about the “ultrasound of the ovaries” value ([2]; 6.0 mg/d, approximately 4 months later) of the same compound?
The value was “ovaries appeared normal”.

What about the symptoms of pain ([2]; 6.0 mg/d, within a month of reinitiating therapy) of the same compound?
Its symptoms of pain is “no longer present”.

What about the “daily feed consumption or weight, placebo versus treated groups” value [3] of the same compound?
Its value is “no statistically significant differences”.

And the “suppressing thyroid uptake of a challenge dose of 125iodide” value [4]?
Its value is “less effective than iodide”.
